According to ChEMBL document CHEMBL5052854, “Alpha-5 beta-1 inhibitors” (2021):

Tested on: FG2
Assay: Inhibition of cell adhesion in human FG2 cells assessed as decrease in cell adhesion to matrix incubated for 1 hr by crystal violet staining based assay
Type: functional
Details: FG2, 1 h

IC50 [nM] | SMILES
< 100 | O=C(CNC(=O)c1cccc(NC2=NCCCN2)c1)NC[C@H](NC(=O)c1c(Cl)cc(-c2ccccc2)cc1Cl)C(=O)O
< 100 | N=C(N)Nc1cccc(C(=O)NCC(=O)NC[C@H](NC(=O)c2c(Cl)cc(N3CCOCC3)cc2Cl)C(=O)O)c1
101 | CN(CC(=O)NC[C@H](NC(=O)c1c(Cl)cc(-c2ccccc2)cc1Cl)C(=O)O)C(=O)c1cccc(NC(=N)N)c1
< 100 | CS(=O)(=O)c1ccc(-c2cc(Cl)c(C(=O)N[C@@H](CNC(=O)CNC(=O)c3cccc(NC(=N)N)c3)C(=O)O)c(Cl)c2)cc1
< 100 | O=C(CNC(=O)c1cccc(NC2=NCC(F)CN2)c1)NC[C@H](NC(=O)c1c(Cl)cc(-c2ccccc2)cc1Cl)C(=O)O (stereo partly drawn)
< 100 | O=C(CNC(=O)c1cccc(NC2=NCCCS2)c1)NC[C@H](NC(=O)c1c(Cl)cc(-c2ccccc2)cc1Cl)C(=O)O
< 100 | O=C(CNC(=O)c1cccc(NC2=NCC(F)(F)CN2)c1)NC[C@H](NC(=O)c1c(Cl)cc(-c2ccc3cn[nH]c3c2)cc1Cl)C(=O)O
< 100 | O=C(CNC(=O)c1cccc(NC2=NCC(F)(F)CN2)c1)NC[C@H](NC(=O)c1c(Cl)cc(N2CCOCC2)cc1Cl)C(=O)O
< 100 | O=C(CNC(=O)c1cccc(NC2=NCCCO2)c1)NC[C@H](NC(=O)c1c(Cl)cc(-c2ccccc2)cc1Cl)C(=O)O
< 100 | O=C(CNC(=O)c1cccc(NC2=NCC(F)CN2)c1)NC[C@H](NC(=O)c1c(Cl)cc(N2CCOCC2)cc1Cl)C(=O)O (stereo partly drawn)
< 50000 | COc1ccc(Nc2cccc(C(=O)NCC(=O)NC[C@H](NC(=O)c3c(Cl)cccc3Cl)C(=O)O)c2)nc1
< 10000 | N#C/N=C(\N)Nc1cccc(C(=O)NCC(=O)NC[C@@H](NC(=O)c2c(Cl)cccc2Cl)C(=O)O)c1
< 100 | O=C(CNC(=O)c1cccc(NC2=NCC(O)CN2)c1)NC[C@H](NC(=O)c1c(Cl)cc(-c2ccccc2)cc1Cl)C(=O)O (stereo partly drawn)
< 1000 | Cc1cccc(Cl)c1C(=O)N[C@@H](CNC(=O)CNC(=O)c1cccc(NC(=N)N)c1)C(=O)O
< 100 | O=C(CNC(=O)c1cccc(NC2=NCC(F)CN2)c1)NC[C@H](NC(=O)c1c(Cl)cc(N2CCS(=O)(=O)CC2)cc1Cl)C(=O)O (stereo partly drawn)
101 | C[C@@H](NC(=O)c1cccc(NC2=NCC(F)CN2)c1)C(=O)NC[C@H](NC(=O)c1c(Cl)cc(-c2ccccc2)cc1Cl)C(=O)O (stereo partly drawn)
< 100 | O=C(CNC(=O)c1cccc(NC2=NCC(F)CN2)c1)NC[C@H](NC(=O)c1c(Cl)cc(-c2ccc3cn[nH]c3c2)cc1Cl)C(=O)O (stereo partly drawn)
< 10000 | N=C(N)Nc1ccc2ccn(CCC(=O)NC[C@H](NC(=O)c3c(Cl)cccc3Cl)C(=O)O)c2c1
< 100 | O=C(CNC(=O)c1cccc(NC2=NCC(F)(F)CN2)c1)NC[C@H](NC(=O)c1c(Cl)cc(-c2ccccc2)cc1Cl)C(=O)O
< 10000 | Cc1ccnc(Nc2cccc(C(=O)NCC(=O)NC[C@H](NC(=O)c3c(Cl)cccc3Cl)C(=O)O)c2)c1
< 1000 | N=C(N)Nc1ccc2c(c1)C(NCC(=O)NC[C@H](NC(=O)c1c(Cl)cccc1Cl)C(=O)O)CCO2 (stereo partly drawn)
< 100 | N=C(N)Nc1cccc(C(=O)NCC(=O)NC[C@H](NC(=O)c2c(Cl)cccc2Cl)C(=O)O)c1
100 | N#C/N=C(\N)Nc1cccc(C(=O)NCC(=O)NC[C@H](NC(=O)c2c(Cl)cccc2Cl)C(=O)O)c1
< 100 | N=C(N)Nc1cccc(C(=O)NCC(=O)NC[C@H](NC(=O)c2c(Cl)cc(-c3ccccc3)cc2Cl)C(=O)O)c1
< 100 | N#Cc1cc(NC(=N)N)cc(C(=O)NCC(=O)NC[C@H](NC(=O)c2c(Cl)cc(-c3ccccc3)cc2Cl)C(=O)O)c1
< 100 | O=C(CNC(=O)c1cccc(NC2=NCCCN2)c1)NC[C@H](NC(=O)c1c(Cl)cccc1Cl)C(=O)O
1000 | CNc1cccc(C(=O)NCC(=O)NC[C@H](NC(=O)c2c(Cl)cc(-c3ccccc3)cc2Cl)C(=O)O)n1
101 | C/N=C(\NC)Nc1cccc(C(=O)NCC(=O)NC[C@H](NC(=O)c2c(Cl)cc(-c3ccccc3)cc2Cl)C(=O)O)c1
